What was measured:
[1] = Physical properties: hygroscopicity, deliquescence, loss on drying; format: physicochemical; settings: for Hygroscopicity and deliquescence: ambient conditions
Protocol: (12) Physical properties and color: Colorless and transparent crystal. […] Loss on drying at 130° C. for 2 hours is less than 0.5 w/w %. FIG. 5 is the microscopic view of a crystal growing in a supersaturated solution.

physchem = format: physicochemical; settings: for Remaining ratio: 0 min, 70 uM; for remaining at 1 h, 70 µM / remaining at 2 h, 70 µM / remaining at 4 h, 70 µM / remaining at 18 h, 70 µM / remaining at 24 h, 70 µM: aqueous solution
Protocol: 2-O-α-D-Glucosyl-L-ascorbic acid was compared respectively to the 6-O-α-D-glucosyl-L-ascorbic acid disclosed in Japanese Patent Publication No. 38,158/73, and L-ascorbic acid for their stability in aqueous solution. More particularly, each sample was adjusted to a concentration of 70 micromoles and to pH 7.0 or 2.0, placed in a cuvette, and measured for its absorbance at either 260 nm and pH 7.0 or at 245 nm and pH 2.0 while keeping the solution at 45° C. The remaining ratio (%) was calculated with the absorbance.

Solubility in water = format: physicochemical; settings: 25° C.
dd mice = assay: Acute toxicity, oral; format: in vivo
Source text: A crystalline 2-O-α-D-glucopyranosyl-L-ascorbic acid specimen, prepared by the method in Experiment 1, was orally administered to 7 week-old dd mice for acute toxicity test. As the result, no mouse died when administered with up to […] of the specimen, and higher dose was difficult.

[2] = Coloring reaction: direct reducing activity; format: biochemical; settings: 2,6-dichlorophenolindophenol
Solubility in solvents = format: physicochemical
α-glucosidase = assay: Hydrolysis by α-glucosidase; format: biochemical; settings: products at molar ratio 1:1
Protocol: (§1) (14) Structual element: Hydrolyzable by α-glucosidase or by treatment with 1N hydrochloric acid at 100° C. for 5 minutes to form L-ascorbic acid and D-glucose at a molar ratio of 1:1.

[3] = Hydrolysis with 1N hydrochloric acid; format: physicochemical; settings: 100° C., 5 minutes, products at molar ratio 1:1
Protocol: as §1

Dissociation constant = format: physicochemical
Source text: (10) Dissociation constant The pKa is 3.0.

Remaining ratio (physchem; pH 2) [%] | Remaining ratio (physchem; pH 7) [%] | remaining at 1 h, 70 µM (physchem; pH 2) [%] | remaining at 2 h, 70 µM (physchem; pH 2) [%] | remaining at 4 h, 70 µM (physchem; pH 2) [%] | remaining at 18 h, 70 µM (physchem; pH 2) [%] | remaining at 24 h, 70 µM (physchem; pH 2) [%] | remaining at 1 h, 70 µM (physchem; pH 7) [%] | remaining at 2 h, 70 µM (physchem; pH 7) [%] | remaining at 4 h, 70 µM (physchem; pH 7) [%] | remaining at 18 h, 70 µM (physchem; pH 7) [%] | remaining at 24 h, 70 µM (physchem; pH 7) [%] | SMILES | Hygroscopicity and deliquescence [1] | further results
 |  |  |  |  |  |  |  |  |  |  |  | O=C1O[C@H]([C@@H](O)CO)C(O)=C1O[C@H]1O[C@H](CO)[C@@H](O)[C@H](O)[C@H]1O [amorphous 2-O-α-D-glucopyranosyl-L-ascorbic acid] [reference compound] | strongly hygroscopic | 
100 | 100 | 99 | 98 | 90 | 25 | 12 | 88 | 72 | 43 | 7 | 4 | O=C1O[C@H]([C@@H](O)CO[C@H]2O[C@H](CO)[C@@H](O)[C@H](O)[C@H]2O)C(O)=C1O [6GAsA, 6-O-α-D-glucosyl-L-ascorbic acid] |  | 
100 | 100 | 98 | 95 | 88 | 12 | 4 | 80 | 61 | 32 | 1 | 1 | O=C1O[C@H]([C@@H](O)CO)C(O)=C1O [AsA, L-ascorbic acid] |  | 

SMILES | Remaining ratio (physchem; pH 2) [%] | Remaining ratio (physchem; pH 7) [%] | remaining at 1 h, 70 µM (physchem; pH 2) [%] | remaining at 2 h, 70 µM (physchem; pH 2) [%] | remaining at 4 h, 70 µM (physchem; pH 2) [%] | remaining at 18 h, 70 µM (physchem; pH 2) [%] | remaining at 24 h, 70 µM (physchem; pH 2) [%] | remaining at 1 h, 70 µM (physchem; pH 7) [%] | remaining at 2 h, 70 µM (physchem; pH 7) [%] | remaining at 4 h, 70 µM (physchem; pH 7) [%] | remaining at 18 h, 70 µM (physchem; pH 7) [%] | remaining at 24 h, 70 µM (physchem; pH 7) [%] | Hygroscopicity and deliquescence [1] | further results
O=C1O[C@H]([C@@H](O)CO)C(O)=C1O[C@H]1O[C@H](CO)[C@@H](O)[C@H](O)[C@H]1O [crystalline 2-O-α-D-glucopyranosyl-L-ascorbic acid] | 100 | 100 |  |  |  |  |  |  |  |  |  |  | Free of hygroscopicity and deliquescence | Solubility (Solubility in water): One hundred and twenty-five; Dose up to which no mouse died (dd mice; 7 week-old dd mice, higher dose was difficult): up to 5 g; Mortality (dd mice; 7 week-old dd mice, up to 5 g of the specimen): no mouse died; Toxicity (dd mice; dd mice, overall conclusion): extremely low in toxicity; Direct reducing activity [2]: no direct reducing activity; Loss on drying ([1]; 130° C., 2 hours): less than 0.5 w/w %; Solubility in solvents (Solubility in solvents; 0.1N acetic acid): Readily soluble; Solubility in solvents (Solubility in solvents; 0.1N sodium hydroxide): Readily soluble; Solubility in solvents (Solubility in solvents; benzene): insoluble; Solubility in solvents (Solubility in solvents; chloroform): insoluble; Solubility in solvents (Solubility in solvents; ethanol): soluble; Solubility in solvents (Solubility in solvents; ether): insoluble; Solubility in solvents (Solubility in solvents; ethyl acetate): insoluble; Solubility in solvents (Solubility in solvents; methanol): soluble; Solubility in solvents (Solubility in solvents; water): Readily soluble; Hydrolysis to L-ascorbic acid and D-glucose (α-glucosidase): Hydrolyzable; Hydrolysis to L-ascorbic acid and D-glucose [3]: Hydrolyzable
O=C1O[C@H]([C@@H](O)CO)C(O)=C1O[C@H]1O[C@H](CO)[C@@H](O)[C@H](O)[C@H]1O [2-O-α-D-glucopyranosyl-L-ascorbic acid] |  |  | 100 | 100 | 100 | 100 | 100 | 100 | 100 | 100 | 100 | 100 |  | pKa (Dissociation constant): 3
